In ChEMBL document CHEMBL1128771 (Bioorg Med Chem Lett, 1995) one finds IC50 and Ki data, which are given here for 53 compounds.

pIC50, pKi: −log10 of the molar value.

Test [1] in a line: Ability to inhibit proliferation in human lymphocytes by mixed lymphocyte reaction (MLR). The class given is functional, cell-based.
The target in test [2] is Dihydroorotate dehydrogenase (quinone), mitochondrial (Homo sapiens, UniProt Q02127).
Dihydroorotate dehydrogenase (quinone), mitochondrial, sequence (Q02127 whole entry): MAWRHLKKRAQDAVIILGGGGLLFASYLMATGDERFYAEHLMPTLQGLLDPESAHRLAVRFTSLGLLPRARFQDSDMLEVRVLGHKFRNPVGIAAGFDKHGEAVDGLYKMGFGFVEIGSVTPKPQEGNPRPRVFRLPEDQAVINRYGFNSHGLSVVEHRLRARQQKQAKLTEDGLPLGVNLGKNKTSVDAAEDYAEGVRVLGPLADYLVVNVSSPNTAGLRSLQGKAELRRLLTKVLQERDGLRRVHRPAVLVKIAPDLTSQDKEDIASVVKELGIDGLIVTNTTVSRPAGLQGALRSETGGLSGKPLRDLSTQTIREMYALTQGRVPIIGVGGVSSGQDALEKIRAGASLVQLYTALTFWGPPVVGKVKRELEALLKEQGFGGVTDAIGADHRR
Description: Inhibition measurement of orotate formation from radiolabeled dihydroorotate, using partially purified DHODase isolated from human liver.

The pIC50 is the IC50 on a negative log10 scale, so that one unit is a factor of ten. By pKi is commonly meant the Ki on a negative log10 scale, so that one unit is a factor of ten. Compound `Cc1c(-c2ccc(-n3ccnc3)cc2)nc2ccc(F)cc2c1C(=O)O` gave a pIC50 in test [1] (Homo sapiens) below 6.30. In test [2], this compound gave a pKi below 6.30.

Compound `CC(=O)OCc1c(C)c(-c2ccc(-c3ccccc3)cc2)nc2ccc(F)cc12` showed a pIC50 in test [1] (Homo sapiens) below 6.30. This compound also had a pKi in test [2] below 6.30. For `Cc1c(-c2ccc(-c3ccccc3)s2)nc2ccc(F)cc2c1C(=O)O`, the pIC50 in test [1] (Homo sapiens) was below 6.30. The compound also had a pKi in test [2] of 6.41. As for `Cn1cnc2c(C(=O)O)cc(-c3ccc(-c4ccccc4)cc3)nc21`, the pIC50 in test [1] (Homo sapiens) was below 6.30. The pKi in test [2] is below 6.30. In test [1] (Homo sapiens), `Cc1c(-c2ccc(-c3ccccc3F)cc2)nc2ncccc2c1C(=O)O` showed a pIC50 below 6.30. In test [2], this compound showed a pKi of 6.68.

Turning to `O=C(O)c1c2c(nc3ccc(F)cc13)-c1ccc(-c3ccccc3)cc1CC2`, the pIC50 in test [1] (Homo sapiens) is 7.85. The same compound showed a pKi in test [2] of 7.77. Turning to `Cc1c(-c2ccc3ccccc3c2)nc2ccc(F)cc2c1C(=O)O`, the pIC50 in test [1] (Homo sapiens) was below 6.30. The pKi in test [2] is 6.52. For `Cc1c(-c2ccc(-c3ccccc3F)cc2)nc2cccnc2c1C(=O)O`, in that order: below 6.30 and 6.30. As for `Cc1c(-c2cccc(Oc3ccccc3)c2)nc2ccc(F)cc2c1C(=O)O`, the pIC50 in test [1] (Homo sapiens) is below 6.30. This compound also had a pKi in test [2] of 7.20. Regarding `Cc1ccc2nc(-c3ccc(-c4ccccc4)cc3)c(C)c(C(=O)O)c2c1`, the pIC50 in test [1] (Homo sapiens) is 6.42. In test [2], this compound had a pKi of 8.00.

As to `Cc1c(-c2ccc(-c3ccccc3)cc2)nc2ccc(F)cc2c1C(N)=O`, in test [1] (Homo sapiens), the pIC50 is below 6.30. In addition, in test [2], the pKi was below 6.30. `CCc1c(-c2ccc(-c3ccccc3)cc2)nc2ccc(F)cc2c1C(=O)O`: the pIC50 in test [1] (Homo sapiens) was 6.68. Besides, in test [2], the pKi is 7.52. In test [1] (Homo sapiens), `CCCCCCc1ccc(-c2nc3ccc(F)cc3c(C(=O)O)c2C)cc1` showed a pIC50 below 6.30. The same compound showed a pKi in test [2] of 7.22. In turn, `Cc1c(-c2ccc(-c3ccc(Br)cc3)cc2)nc2ccc(F)cc2c1C(=O)O` gave a pIC50 in test [1] (Homo sapiens) below 6.30. In test [2], this compound showed a pKi of 7.42. With `Cc1ccc(-c2ccc(-c3nc4ccc(F)cc4c(C(=O)O)c3C)cc2)cc1`, the pIC50 in test [1] (Homo sapiens) was 6.82. Further, in test [2], the pKi is 7.62. For `COC(=O)c1c(C)c(-c2ccc(-c3ccccc3)cc2)nc2ccc(F)cc12`, the pIC50 in test [1] (Homo sapiens) is below 6.30. In test [2], this compound gave a pKi of 6.40. `Cc1c(-c2ccc(-c3ccc(C(F)(F)F)cc3)cc2)nc2ccc(F)cc2c1C(=O)O` had a pIC50 in test [1] (Homo sapiens) below 6.30. This compound also gave a pKi in test [2] of 6.64. In test [1] (Homo sapiens), `Cc1c(-c2ccc(Oc3ccccc3)cc2)nc2ccc(F)cc2c1C(=O)O` had a pIC50 of 6.30. Besides, the pKi in test [2] was 7.54.

Take `CC(=O)Nc1ccc2nc(-c3ccc(-c4ccccc4)cc3)c(C)c(C(=O)O)c2c1`: the pIC50 in test [1] (Homo sapiens) is below 6.30. This compound also had a pKi in test [2] below 6.30. Consider `Cc1c(-c2ccc(-c3ccc(Cl)cc3)cc2)nc2ccc(F)cc2c1C(=O)O`, for which the pIC50 in test [1] (Homo sapiens) was below 6.30. In test [2], this compound showed a negative logarithm of the Ki (pKi) of 6.85. `O=C(O)c1cc(-c2ccc(-c3ccccc3)cc2)nc2sccc12` gave a pIC50 in test [1] (Homo sapiens) below 6.30. This compound also showed a pKi in test [2] of 6.68. Taken in the same sequence, the figures for `Cc1c(-c2ccc(-c3ccccc3)cc2)nc2ccc(C(F)(F)F)cc2c1C(=O)O` were 8.15 and 8.08. For `O=C(O)c1cc(-c2ccc(-c3ccccc3)cc2)nc2ocnc12`, the pIC50 in test [1] (Homo sapiens) is below 6.30. The same compound showed a pKi in test [2] below 6.30. In turn, `Cc1c(-c2ccc(-c3ccccc3)cc2)nc2ccc(F)cc2c1-n1cnnn1` gave a pIC50 in test [1] (Homo sapiens) below 6.30. The compound further gave a pKi in test [2] below 6.30. `Cc1c(-c2ccc(-c3cccc(F)c3)cc2)nc2ccc(F)cc2c1C(=O)O`: the pIC50 in test [1] (Homo sapiens) was 7.70. This compound gave a pKi in test [2] of 7.30. For `Cc1c(-c2ccc(-c3ccccc3)cc2)nc2ccc(Cl)cc2c1C(=O)O`, in that order: 7.46 and 7.70.

`COC(=O)c1ccc2nc(-c3ccc(-c4ccccc4)cc3)c(C)c(C(=O)O)c2c1` showed a pIC50 in test [1] (Homo sapiens) below 6.30. This compound also gave a pKi in test [2] below 6.30. Take `Cc1c(-c2ccc(-c3ccccc3)cc2)nc2ccc(F)cc2c1CO`: the pIC50 in test [1] (Homo sapiens) was below 6.30. The compound further showed a pKi in test [2] below 6.30. In test [1] (Homo sapiens), `Cc1c(-c2ccc(-c3cccnc3)cc2)nc2ccc(F)cc2c1C(=O)O` had a pIC50 below 6.30. This compound also had a pKi in test [2] of 6.70. For `O=C(O)c1cc(-c2ccc(-c3ccccc3)cc2)nc2ccc(F)cc12`, in that order: 6.82 and 8.00. For the compound `Cc1c(CCCCc2ccccc2)nc2ccc(F)cc2c1C(=O)O`, in test [1] (Homo sapiens), the pIC50 is below 6.30. In test [2], this compound had a pKi below 6.30. With `Cc1c(-c2ccc(-c3ccc(F)cc3)cc2)nc2ccc(F)cc2c1C(=O)O`, in test [1] (Homo sapiens), the pIC50 was 6.59. This compound also had a pKi in test [2] of 6.68. In test [1] (Homo sapiens), `Cc1c(-c2ccc(-c3ccccc3)cc2)nc2ccc(F)cc2c1O` gave a pIC50 below 6.30. In test [2], this compound had a pKi below 6.30. Take `Cc1c(-c2ccc(-c3ccccc3F)cc2)nc2ccncc2c1C(=O)O`: the pIC50 in test [1] (Homo sapiens) was below 6.30. For the same compound, the pKi in test [2] was 6.38. In test [1] (Homo sapiens), `Cc1c(-c2ccc(C3CCCCC3)cc2)nc2ccc(F)cc2c1C(=O)O` showed a pIC50 of 7.60. For the same compound, in test [2], the pKi is 7.55. Taken in the same sequence, the figures for `Cc1c(-c2cccc(-c3ccccc3)c2)nc2ccc(F)cc2c1C(=O)O` were below 6.30 and below 6.30. Take `Cc1c(-c2ccc(-c3ccccc3)cc2)nc2ccccc2c1C(=O)O`: the pIC50 in test [1] is 6.74. In test [1] (Homo sapiens), `CSc1c(-c2ccc(-c3ccccc3)cc2)nc2ccc(F)cc2c1C(=O)O` gave a pIC50 of 7.74. For the same compound, the pKi in test [2] was 7.89. In the case of `Cc1c(-c2ccc(-c3ccccc3F)cc2)nc2cnccc2c1C(=O)O`, the pIC50 in test [1] (Homo sapiens) is 6.54. Also, the pKi in test [2] was 7.32. In turn, `COc1c(-c2ccc(-c3ccccc3)cc2)nc2ccc(F)cc2c1C(=O)O` showed a pIC50 in test [1] (Homo sapiens) of 6.60. Also, in test [2], the pKi is 7.89.

With `Cc1c(-c2ccc(-c3ccccc3)cc2)nc2c(Cl)cccc2c1C(=O)O`, the pIC50 in test [1] (Homo sapiens) was below 6.30. The pKi in test [2] is 6.82. Compound `Cc1c(-c2ccc(-c3ccccc3)cc2)nc2cc(Cl)ccc2c1C(=O)O` had a pIC50 in test [1] (Homo sapiens) below 6.30. Moreover, the pKi in test [2] was 6.66. As for `Cc1c(-c2ccc(-c3ccccc3)cc2)nc2cccc(Cl)c2c1C(=O)O`, the pIC50 in test [1] (Homo sapiens) was 6.82. In addition, the pKi in test [2] is 7.60. Consider `Cc1c(-c2ccc(C(C)(C)C)cc2)nc2ccc(F)cc2c1C(=O)O`, for which the pIC50 in test [1] (Homo sapiens) was 6.40. In test [2], the pKi is 7.40. In test [1] (Homo sapiens), `O=C(O)c1c(O)c(-c2ccc(-c3ccccc3)cc2)nc2ccc(F)cc12` showed a pIC50 below 6.30. For the compound `Cc1c(-c2ccc(-c3cccs3)cc2)nc2ccc(F)cc2c1C(=O)O`, the pIC50 in test [1] (Homo sapiens) was 6.46. This compound also had a pKi in test [2] of 7.25. Consider `Cc1c(-c2ccc(-c3ccccc3)cc2)nc2ccc(O)cc2c1C(=O)O`, for which the pIC50 in test [1] (Homo sapiens) was below 6.30. In addition, the pKi in test [2] was below 6.30. Turning to `CSc1ccc2nc(-c3ccc(-c4ccccc4)cc3)c(C)c(C(=O)O)c2c1`, the pIC50 in test [1] (Homo sapiens) is below 6.30. Besides, the pKi in test [2] is 6.57. As for `Cc1c(-c2ccccc2)nc2ccc(F)cc2c1C(=O)O`, the pIC50 in test [1] (Homo sapiens) was below 6.30. The compound also showed a pKi in test [2] below 6.30. Turning to `Cc1c(-c2cccc3ccccc23)nc2ccc(F)cc2c1C(=O)O`, the pIC50 in test [1] (Homo sapiens) is below 6.30. Moreover, the pKi in test [2] was below 6.30. In test [1] (Homo sapiens), `Cc1c(-c2ccc(-c3ccc(O)cc3F)cc2)nc2ccc(F)cc2c1C(=O)O` showed a pIC50 of 6.52. This compound gave a pKi in test [2] of 7.96.

In turn, `Cc1c(-c2ccc(-c3ccccc3F)cc2)nc2nc[nH]c2c1C(=O)O` gave a pIC50 in test [1] (Homo sapiens) below 6.30. Also, the pKi in test [2] is below 6.30. In turn, `Cc1c(-c2ccc(-c3ccccc3F)cc2)nc2ccc(F)cc2c1C(=O)O` [BREQUINAR] had a pIC50 in test [1] of 7.82.
